Assay results: the supplement of paper PMC10307832

Key:
Experiment in all cases: relative viability (nuclei count vs DMSO), 5 days (fraction); higher = more cells survive
Tosedostat + Lapatinib = compound: CC(C)C[C@@H](C(=O)N[C@H](C(=O)OC1CCCC1)c1ccccc1)[C@H](O)C(=O)NO [Tosedostat] + CS(=O)(=O)CCNCc1ccc(-c2ccc3ncnc(Nc4ccc(OCc5cccc(F)c5)c(Cl)c4)c3c2)o1 [Lapatinib] (partner 2 µM)
Method in brief: (§1)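 Lung cancer cell lines in 1536-well plates got either a single drug or a fixed anchor-drug dose together with five library-drug doses (not always all listed) in √10 steps, by pin tool, on the day after seeding. Nuclei were counted after 5 days, and relative viability is the treated-to-vehicle ratio of nuclei counts. Values are medians of duplicate plates.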

[1] = compound: CC1=NN=C(O1)C2=NN=C(C=C2)N3CCC(CC3)OC4=C(C=CC(=C4)F)Cl + Cc1cc(Nc2cc(N3CCN(C)CC3)nc(Sc3ccc(NC(=O)C4CC4)cc3)n2)n[nH]1 [Tozasertib] (partner 0.1 µM)
Method in brief: as §1

[2] = compound: CC1=NN=C(O1)C2=NN=C(C=C2)N3CCC(CC3)OC4=C(C=CC(=C4)F)Cl + Cc1nc(NC(=O)N2CCC[C@H]2C(N)=O)sc1-c1ccnc(C(C)(C)C(F)(F)F)c1 [Alpelisib] (partner 2 µM)
Method in brief: as §1

[3] = compound: CC1=NN=C(O1)C2=NN=C(C=C2)N3CCC(CC3)OC4=C(C=CC(=C4)F)Cl + O=C(c1cc(Cc2n[nH]c(=O)c3ccccc23)ccc1F)N1CCN(C(=O)C2CC2)CC1 [Olaparib] (partner 8 µM)
Method in brief: as §1

Cell Line	relative viability (Tosedostat + Lapatinib; first compound 0.02 µM)	relative viability (Tosedostat + Lapatinib; first compound 0.06325 µM)	relative viability (Tosedostat + Lapatinib; first compound 0.2 µM)	relative viability (Tosedostat + Lapatinib; first compound 0.6325 µM)	relative viability (Tosedostat + Lapatinib; first compound 2 µM)	relative viability ([1]; first compound 0.253 µM)	relative viability ([1]; first compound 0.8 µM)	relative viability ([1]; first compound 2.53 µM)	relative viability ([1]; first compound 8 µM)	relative viability ([2]; first compound 0.253 µM)	relative viability ([2]; first compound 0.8 µM)	relative viability ([2]; first compound 2.53 µM)	relative viability ([2]; first compound 8 µM)	relative viability ([3]; first compound 0.253 µM)	relative viability ([3]; first compound 0.8 µM)	relative viability ([3]; first compound 2.53 µM)	relative viability ([3]; first compound 8 µM)
201T	1.05	1.06	1.06	1.09	1.13	0.421	0.432	0.427	0.421	0.594	0.614	0.578	0.563	0.409	0.382	0.389	0.383
A549	1	1.07	0.957	0.925	0.939					0.573	0.666	0.581	0.463	0.235	0.0638	0.409	0.163
A-427	1.13	1.1	1.01	1.02	0.995	0.23		0.168	0.168	1.05		1.02	0.882	0.527	0.634	0.744	0.669
ABC-1	1.34	1.12	1.2	1.19	1.23	0.17	0.193	0.178	0.177	0.729	0.567	0.568	0.642	0.664	0.506	0.488	0.638
BEN	0.924	0.936	0.68	0.987	0.702	0.505	0.423	0.454	0.46	0.767	0.899	1.05	0.901	1.2	0.767	0.966	1.07
CAL-12T	0.545	0.7	0.728	0.669	0.678	0.26	0.241	0.227	0.216	1.14	0.871	0.989	0.877	0.639	0.68	0.651	0.644
COR-L23	1.03	0.946	0.918	0.817	0.99	0.166	0.131	0.145	0.121	0.591	0.657	0.574	0.552	0.259	0.271	0.345	0.299
COR-L 105	0.415	0.412	0.326	0.416	0.358	0.328	0.375	0.365	0.427	0.925	1.03	1.12	1.29	0.556	0.703	0.819	0.901
Calu-6	1.33	1.04	0.951	0.899	0.864					0.808	0.864	0.895	0.846	0.381	0.389	0.385	0.384
ChaGo-K-1						0.258	0.226	0.226	0.214					0.298	0.255	0.354	0.28
EBC-1	0.241	0.245	0.195	0.22	0.17					0.752	0.908	0.756	0.74	0.485	0.538	0.509	0.438
